The source made the active and inactive calls. The rule behind the calls is not given here.
Assays:
CCRF-CEM [1] = test: Induction of apoptosis in human CCRF-CEM cells assessed as necrotic cells at 0.25 uM incubated for 48 hrs by Annexin V-FITC/PI staining based flow cytometry (reference value: 0.0 %); format: functional
CCRF-CEM [2] = test: Induction of cell cycle arrest in human CCRF-CEM cells assessed as cell accumulation at G1 phase at 2 uM incubated for 24 hrs by PI staining based flow cytometry analysis (reference value: 24.1 %); format: functional
CCRF-CEM [3] = test: Antiproliferative activity against human CCRF-CEM cells assessed as cell growth inhibition at 0.1875 to 20 uM by CCK8 assay; format: functional, cell-based; settings: dose 0.1875-20 µM, time 24-48 hrs, TDE = time-dependent effect
[4] = Selectivity index, ratio of IC50 for human HL-60 cells to IC50 for human CCRF-CEM cells
CCRF-CEM [5] = test: Induction of cell cycle arrest in human CCRF-CEM cells assessed as cell accumulation at G2/M phase at 0.5 uM incubated for 24 hrs by PI staining based flow cytometry analysis (reference value: 61.3 %); format: functional
CCRF-CEM [6] = test: Induction of apoptosis in human CCRF-CEM cells assessed as late apoptotic cells at 2 uM incubated for 48 hrs by Annexin V-FITC/PI staining based flow cytometry (reference value: 3.2 %); format: functional
HL-60 = test: Antiproliferative activity against human HL-60 cells assessed as cell growth inhibition incubated for 72 hrs by MTT assay; format: functional, cell-based; settings: HL-60, 72 h
CCRF-CEM [7] = test: Induction of cell cycle arrest in human CCRF-CEM cells assessed as cell accumulation at S phase at 1 uM incubated for 24 hrs by PI staining based flow cytometry analysis (reference value: 15.5 %); format: functional
CCRF-CEM [8] = test: Induction of cell cycle arrest in human CCRF-CEM cells assessed as cell accumulation at G1 phase at 0.5 uM incubated for 24 hrs by PI staining based flow cytometry analysis (reference value: 24.1 %); format: functional
CCRF-CEM [9] = test: Downregulation of ROS level in human CCRF-CEM cells at 0.125 to 2 uM incubated for 12 hrs by DCFH-DA probe based flow cytometry analysis; format: functional, cell-based; settings: dose 0.125-2 µM
HCT-116 = test: Antiproliferative activity against human HCT-116 cells assessed as cell growth inhibition incubated for 72 hrs by MTT assay; format: functional, cell-based; settings: HCT-116, 72 h
CCRF-CEM [10] = test: Induction of apoptosis in human CCRF-CEM cells assessed as nuclear condensation upto 4 uM incubated for 48 hrs by Hoechst staining based fluorescent microscopic analysis; format: functional, cell-based
CCRF-CEM [11] = test: Antiproliferative activity against human CCRF-CEM cells assessed as cell growth inhibition incubated for 72 hrs by MTT assay; format: functional, cell-based
CCRF-CEM [12] = test: Induction of apoptosis in human CCRF-CEM cells assessed as necrotic cells at 1 uM incubated for 48 hrs by Annexin V-FITC/PI staining based flow cytometry (reference value: 0.0 %); format: functional
CCRF-CEM [13] = test: Induction of cell cycle arrest in human CCRF-CEM cells assessed as cell accumulation at G1 phase at 1 uM incubated for 24 hrs by PI staining based flow cytometry analysis (reference value: 24.1 %); format: functional
[14] = Selectivity index, ratio of IC50 for human K562 cells to IC50 for human CCRF-CEM cells
CCRF-CEM [15] = test: Induction of apoptosis in human CCRF-CEM cells assessed as necrotic cells at 0.5 uM incubated for 48 hrs by Annexin V-FITC/PI staining based flow cytometry (reference value: 0.0 %); format: functional
CCRF-CEM [16] = test: Induction of apoptosis in human CCRF-CEM cells assessed as early apoptotic cells at 2 uM incubated for 48 hrs by Annexin V-FITC/PI staining based flow cytometry (reference value: 13.4 %); format: functional
CCRF-CEM [17] = test: Induction of apoptosis in human CCRF-CEM cells assessed downregulation of Bcl-2 expression at 0.25 to 0.5 uM incubated for 48 hrs by Western blot analysis; format: functional, cell-based; settings: dose 0.25-0.5 µM
CCRF-CEM [18] = test: Induction of apoptosis in human CCRF-CEM cells assessed as necrotic cells at 2 uM incubated for 48 hrs by Annexin V-FITC/PI staining based flow cytometry (reference value: 0.0 %); format: functional
CCRF-CEM [19] = test: Induction of apoptosis in human CCRF-CEM cells assessed as early apoptotic cells at 4 uM incubated for 48 hrs by Annexin V-FITC/PI staining based flow cytometry (reference value: 13.4 %); format: functional
CCRF-CEM [20] = test: Induction of apoptosis in human CCRF-CEM cells assessed as viable cells at 4 uM incubated for 48 hrs by Annexin V-FITC/PI staining based flow cytometry (reference value: 83.4 %); format: functional; settings: read-out: Activity
CCRF-CEM [21] = test: Downregulation of ROS level in human CCRF-CEM cells assessed as effect on CAT level at 0.125 to 0.5 uM incubated for 12 hrs in presence of NADPH by DCFH-DA probe based flow cytometry analysis; format: functional, cell-based; settings: dose 0.125-0.5 µM
CCRF-CEM [22] = test: Downregulation of ROS level in human CCRF-CEM cells assessed as H2O2 level at 1 uM incubated for 12 hrs in presence of NADPH by absorbance based assay; format: functional, cell-based
CCRF-CEM [23] = test: Downregulation of ROS level in human CCRF-CEM cells assessed as CAT level at 1 uM incubated for 12 hrs in presence of NADPH by absorbance based assay; format: functional, cell-based
CCRF-CEM [24] = test: Induction of apoptosis in human CCRF-CEM cells assessed as late apoptotic cells at 0.25 uM incubated for 48 hrs by Annexin V-FITC/PI staining based flow cytometry (reference value: 3.2 %); format: functional

C[C@@H]1CC[C@H]2[C@@H](C)C(OC(=O)c3ccc(N(CCCl)CCCl)cc3)O[C@@H]3O[C@@]4(C)CC[C@@H]1[C@]32OO4 (stereo partly specified)
Activity (CCRF-CEM [1]): 0.1%
Activity (CCRF-CEM [2]): 26.9%
Activity (CCRF-CEM [3]): Tde
Selectivity Index [4]: 17.2
Activity (CCRF-CEM [5]): 70.8%
Activity (CCRF-CEM [6]): 12.8%
IC50 (HL-60): 2320 nM
Activity (CCRF-CEM [7]): 35.1%
Activity (CCRF-CEM [8]): 22.8%
Activity (CCRF-CEM [9]): Dose-Dependent Effect
IC50 (HCT-116): 3100 nM
Activity (CCRF-CEM [10]): Active
IC50 (CCRF-CEM [11]): 895 nM
Activity (CCRF-CEM [12]): 0.1%
Activity (CCRF-CEM [13]): 18.2%
Selectivity Index [14]: 1.82
Activity (CCRF-CEM [15]): 0.1%
Activity (CCRF-CEM [16]): 33.4%
Activity (CCRF-CEM [17]): Active
Activity (CCRF-CEM [18]): 0.1%
Activity (CCRF-CEM [19]): 37.3%
viability at 4 µM (CCRF-CEM [20]): 47.8%
Activity (CCRF-CEM [21]): Active
Activity (CCRF-CEM [22]): inactive
Activity (CCRF-CEM [23]): inactive
Activity (CCRF-CEM [24]): 11.7%

— ChEMBL document CHEMBL5247590, “Novel nitrogen mustard-artemisinin hybrids with potent anti-leukemia action through DNA damage and activation of GPx” (Eur J Med Chem, 2022)
